Experiment: xn = mol fraction of the nth substance listed

CN(CCO)CCO + CCCC[n+]1ccn(C)c1.F[B-](F)(F)F
101 kPa
Details | viscosity [mPa·s]
293.15 K, x2 = 0.8999 | 105.6
303.15 K, x2 = 0.3 | 43.7
303.15 K, x2 = 0.8999 | 63.5
323.15 K, x2 = 0.1974 | 17.8
323.15 K, x2 = 0.6 | 18.8
333.15 K, x2 = 0.1974 | 12.09
333.15 K, x2 = 0.7998 | 16.8

CN(CCO)CCO + CCCC[n+]1ccn(C)c1.F[B-](F)(F)F + O
viscosity [mPa·s], 101 kPa
Details | 293.15 K | 303.15 K | 313.15 K | 323.15 K | 333.15 K
x2 = 0.0987, x1 = 0.7994 | 86.7 | 48.2 | 28.8 | 18.4 | 12.32
x2 = 0.0989, x1 = 0.623 | 77.4 | 43.7 | 26.1 | 16.6 | 11.12
x2 = 0.0991, x1 = 0.4459 | 59.2 | 33.7 | 20.4 | 13.16 | 8.94
x2 = 0.0993, x1 = 0.2681 | 32.9 | 19.2 | 12.08 | 8.13 | 5.78
x2 = 0.0995, x1 = 0.0895 | 8.59 | 5.78 | 4.14 | 3.11 | 2.41
x2 = 0.1972, x1 = 0.7097 | 77.7 | 43.1 | 26 | 16.8 | 11.42
x2 = 0.1978, x1 = 0.5528 | 67.4 | 37.3 | 22.6 | 14.63 | 9.99
x2 = 0.1979, x1 = 0.3957 | 50.3 | 28.3 | 17.5 | 11.53 | 8.07
x2 = 0.1982, x1 = 0.2378 | 28.6 | 17 | 11.04 | 7.72 | 5.63
x2 = 0.1986, x1 = 0.0794 | 10.66 | 7.28 | 5.26 | 3.98 | 3.12
x2 = 0.2954, x1 = 0.6203 | 72.6 | 40.5 | 24.7 | 16.15 | 11.16
x2 = 0.2959, x1 = 0.4832 | 60.5 | 34.2 | 21.1 | 13.97 | 9.79
x2 = 0.2963, x1 = 0.3457 | 45 | 26.1 | 16.5 | 11.2 | 8.04
x2 = 0.2968, x1 = 0.2077 | 27.8 | 17.2 | 11.44 | 8.18 | 6.09
x2 = 0.2972, x1 = 0.0694 | 13.16 | 9.12 | 6.68 | 5.08 | 4
x2 = 0.3934, x1 = 0.531 | 68.7 | 39.1 | 24.3 | 16.14 | 11.32
x2 = 0.3939, x1 = 0.4136 | 56.5 | 32.9 | 20.8 | 14.05 | 10.02
x2 = 0.3944, x1 = 0.2958 | 43 | 25.9 | 16.8 | 11.65 | 8.49
x2 = 0.395, x1 = 0.1777 | 28.8 | 18.3 | 12.49 | 8.99 | 6.8
x2 = 0.3955, x1 = 0.0593 | 16.8 | 11.66 | 8.53 | 6.54 | 5.13
x2 = 0.4912, x1 = 0.442 | 66.5 | 38.9 | 24.6 | 16.7 | 11.88
x2 = 0.4917, x1 = 0.3442 | 57.5 | 34.4 | 21.8 | 14.94 | 10.7
x2 = 0.4923, x1 = 0.2461 | 44.3 | 27.4 | 18.2 | 12.72 | 9.42
x2 = 0.493, x1 = 0.1478 | 32.9 | 21.3 | 14.71 | 10.66 | 8.1
x2 = 0.4934, x1 = 0.0493 | 22.1 | 15.2 | 10.99 | 8.33 | 6.54
x2 = 0.5887, x1 = 0.3532 | 69.7 | 41.6 | 26.2 | 17.9 | 12.88
x2 = 0.5893, x1 = 0.275 | 60 | 37.1 | 23.5 | 16.3 | 11.86
x2 = 0.5898, x1 = 0.1966 | 49.1 | 30.6 | 20.7 | 14.67 | 10.75
x2 = 0.5903, x1 = 0.118 | 39.4 | 25.6 | 17.7 | 12.8 | 9.64
x2 = 0.5909, x1 = 0.0394 | 29.3 | 20 | 14.32 | 10.68 | 8.29
x2 = 0.6861, x1 = 0.2646 | 74.6 | 45.2 | 28.8 | 19.8 | 14.34
x2 = 0.6866, x1 = 0.2059 | 66.4 | 41 | 26.5 | 18.5 | 13.45
x2 = 0.687, x1 = 0.1472 | 57.5 | 35.8 | 24.1 | 17.1 | 12.65
x2 = 0.6874, x1 = 0.0884 | 47.3 | 30.3 | 20.9 | 15.08 | 11.36
x2 = 0.6877, x1 = 0.0295 | 40.3 | 26.6 | 18.8 | 13.79 | 10.55
x2 = 0.7831, x1 = 0.1762 | 84.7 | 51.6 | 32.9 | 22.7 | 16.5
x2 = 0.7836, x1 = 0.1371 | 78.6 | 48.6 | 31.5 | 22 | 16.01
x2 = 0.7839, x1 = 0.0979 | 72.2 | 44.8 | 29.8 | 20.9 | 15.35
x2 = 0.7842, x1 = 0.0588 | 65.6 | 41.8 | 28.1 | 20 | 14.73
x2 = 0.7845, x1 = 0.0196 | 56.4 | 36.7 | 25 | 18 | 13.44
x2 = 0.8801, x1 = 0.0879 | 102 | 62.1 | 40.3 | 27.1 | 19.5
x2 = 0.8804, x1 = 0.0684 | 99.2 | 60.7 | 39.7 | 26.8 | 19.3
x2 = 0.8805, x1 = 0.0294 | 90.7 | 56.4 | 37.2 | 25.5 | 18.5
x2 = 0.8806, x1 = 0.0098 | 80.9 | 50.9 | 33.8 | 23.7 | 17.3
x2 = 0.8806, x1 = 0.0488 | 94.5 | 58.3 | 38.5 | 26.1 | 18.9

CCCC[n+]1ccn(C)c1.F[B-](F)(F)F + CCCC[n+]1ccn(C)c1.F[P-](F)(F)(F)(F)F
101 kPa, x2 = 0
Details | viscosity [mPa·s]
299.15 K | 101.9
301.15 K | 92
303.15 K | 83.4

O=C1CCCC1 + CCCC[n+]1ccn(C)c1.F[P-](F)(F)(F)(F)F
298.15 K, 101.3 kPa
Details | viscosity [mPa·s]
x1 = 0.0936 | 175
x1 = 0.3093 | 66
x1 = 0.4012 | 42.2
x1 = 0.5514 | 19.23

Source: the CheMixHub ionic liquid set
